Laboratory results from EP2686338B1, “FUNCTIONALIZED BIOMATERIALS FOR TISSUE REGENERATION” (Nanomed3d S.r.l., priority 2011, dated 2018).
“Also recorded” adds a separate entry of the source. Residues, ends and D or L forms follow the SMILES beside them.

How the values were obtained:
[1] = tested on: acute contusive spinal cord injury (SCI); assay: Acute contusive spinal cord injury model, histology and morphometrical quantification; type: in vivo, Sprague-Dawley rats; settings: 8 weeks after injury
Protocol: (§1) 20 female Sprague-Dawley rats weighting 200-250 gr (Charles River Laboratories) were randomly divided into two groups: 1) spinal cord injured animals treated with Ac-FAQ and 2) spinal cord injured animals treated with the saline solution (control group). Rats were anesthetized with an intraperitoneal injection of ketamine (80 mg/kg) and xylazine (10 mg/kg). After laminectomy at the T9-T10 level, the exposed spinal cord was lesioned (Figure 8A1) by a 10-gram rod dropped from a height of 25 mm by using a MASCIS Impactor device (WM Keck Center for Collaborative Neuroscience, Rutgers University), as previously described 33. Immediately after injury, animals were injected with Ac-FAQ (1% acqueous solution) or the saline solution using an Hamilton syringe held via a micromanipulator (Figure 8A2). The biomaterial or the distilled water was delivered into the lesion site at distances of 500 µm, and at each interval two injections of 0,5 µl each were made, for a total dose of 3 µl. After injection, the muscles were sutured and the skin was closed with wound clips. […]
Quantitative analysis was performed on longitudinal sections of rat spinal cords, spanning between T7 and T12 and including the injury site (T9-T10).
The presence of axons expressing Gap-43 and βIII within the cyst was investigated. Gap-43 positive fibers were quantified and the relative value of GAP-43 immunopositive area was expressed as percentage of the total cyst area.
Injured tissue was quantified in seven-to-sixteen longitudinal sections per animal, depending on the cyst extent. […] Sections were stained with hematoxylin/eosin and images were captured (Axioplan2 Zeiss microscope) at 5x magnification, then single images were merged, converted into binary pictures and cavities into the injured area were quantified via Image J software (http://rsb.info.nih.gov/ij/). We measured also the whole injured tissue size. […]
Axon regeneration/sprouting, into the cyst area, was quantified on six longitudinal sections (spaced 160 µm) per animal via GAP-43 (1:200, Millipore) and Cy3-conjugated antibodies (1:1000, Jackson). […]

human NSCs [2] = assay: Immunofluorescence of differentiated NSC progeny on scaffolds, human NSCs; type: cell-based; settings: 1% scaffold; compared to Cultrex positive control
Protocol: (§2) In vitro tests were performed as previously described (8), in order to assess whether the biomaterials (assembled hydrogels) obtained with the SAPs of the present invention influenced NSCs adhesion, survival and/or differentiation. SAPeptides (30 µl for each well at a concentration of 10 mg/ml) were assembled into 96 multiwells two hours before cell. Cells (at a concentration of 2x10^4 cells/cm^2) were seeded on the top-surface of each assembled scaffold. Initially, cells were cultured with basal medium supplemented with βFGF (10 ng/ml), added to enhance neuronal progeny differentiation. At 3 days in vitro (DIV), βFGF medium was replaced with Leukemia Inhibitory Factor (LIF, Chemicon) (20 ng/ml) and Brain Derived Neurotrophic Factor (BDNF, Peprotech) (20 ng/ml). Fresh medium was added every three days. For both viability and differentiation assays positive and negative controls consisted of Cultrex-BME® substrate (R&D systems) (1:100 dilution in basal medium) and untreated bottom well surfaces respectively. Cell viability was quantified via CellTiter 96® Aqueous Proliferation Assay (Promega) at 7 DIV as recommended in the Promega protocol. After calibrating the linear response between the cell number and absorbance values, proliferated cell populations were quantified (n=5) by using a Vmax microplate reader (Molecular Devices) at 490nm wavelength. Values, reported as means ± standard error of the mean, were blanked to their respective controls consisting of same substrates and cell culture media without cells.
Immunofluorescence tests were performed for assaying the phenotypes of the differentiated human and murine NSC progenies. In the case of KLP and Ac-KLP just murine NSC have been used. Ac-KLP and KLP scaffolds were prepared at different concentrations in order to display three different stiffness values (viz. 100, 500 and 1000 Pa). This was done to assess the influence of scaffold concentration (and consequently its stiffness) over NSC differentiation. All the other peptides were tested at 1% v/w concentration instead. The following antibodies were used: rabbit polyclonal against GFAP (1:500, DakoCytomation) for astrocytes, mouse monoclonal against βIII-Tubulin (1:500, Covance) for neurons, mouse monoclonal against GalC (1:200, Chemicon) and O4 (1:200, Chemicon) for oligodendrocyes. Secondary Abs were Goat anti Mouse Alexa 488 (1:1000, Molecular Probes), Goat anti Mouse Cy3 (1:1000, Jackson Immunoresearch), Goat anti Rabbit Cy3 (1:1000, Jackson Immunoresearch). […] Quantitative analyses were performed by counting 100-300 cells for each of 9 randomly chosen fields over a total of 3 independent experiments. Phase contrast and fluorescence images of the adhering cells were acquired via Zeiss microscopes Axioplan 2 and ApoTome System at one week after seeding.

[3] = tested on: acute contusive spinal cord injury (SCI); assay: Acute contusive spinal cord injury model, BBB locomotor rating; type: in vivo, Sprague-Dawley rats
Protocol: as §1
Hindlimb recovery was assessed by using the Basso, Beattie, Bresnahan (BBB) Locomotor Rating Scale. Starting from 1 week post-injury, every 3-4 days each rat was observed and recorded with a digital video camera for 4 min in an open field. Rats were evaluated in double-blind experimental settings. […]

[4] = Rheology (frequency, time and strain sweeps); type: physicochemical
Protocol: Rheological properties of the self-assembling peptides of the invention were determined using a controlled stress TA Instruments AR-2000ex rheometer (TA Instruments). A cone-and-plate geometry (acrylic cone diameter, 20 mm; angle, 1°; truncation gap 34 µm) was used. Preliminary strain sweeps were performed for each sample to define the linear viscoelastic region, thus ensuring that moduli were independent of strain. Time sweeps, after addition of PBS (1x) were recorded at 25 C (angular frequency ω=1 Hz) and continued till G' plateaued. Frequency sweeps, both for peptide water solutions and for self-assembled scaffolds, were performed at 25 C with the instrument in oscillatory mode at controlled strain of 1 %. Final strain sweeps was performed at 1Hz oscillatory frequency and at 25 C: onset point of failure was calculated by linear interpolation and subsequent determination of the intersection of the G' modes within the linear region and at material failure respectively.

murine NSCs [5] = assay: Immunofluorescence of differentiated NSC progeny on scaffolds, murine NSCs; type: cell-based; settings: 1% scaffold; compared to Cultrex positive control
Protocol: as §2
Immunofluorescence tests were performed for assaying the phenotypes of the differentiated human and murine NSC progenies. In the case of KLP and Ac-KLP just murine NSC have been used. Ac-KLP and KLP scaffolds were prepared at different concentrations in order to display three different stiffness values (viz. 100, 500 and 1000 Pa). This was done to assess the influence of scaffold concentration (and consequently its stiffness) over NSC differentiation. All the other peptides were tested at 1% v/w concentration instead. The following antibodies were used: rabbit polyclonal against GFAP (1:500, DakoCytomation) for astrocytes, mouse monoclonal against βIII-Tubulin (1:500, Covance) for neurons, mouse monoclonal against GalC (1:200, Chemicon) and O4 (1:200, Chemicon) for oligodendrocyes. Secondary Abs were Goat anti Mouse Alexa 488 (1:1000, Molecular Probes), Goat anti Mouse Cy3 (1:1000, Jackson Immunoresearch), Goat anti Rabbit Cy3 (1:1000, Jackson Immunoresearch). Cell nuclei were counterstained with DAPI (Molecular Probes). Quantitative analyses were performed by counting 100-300 cells for each of 9 randomly chosen fields over a total of 3 independent experiments. Phase contrast and fluorescence images of the adhering cells were acquired via Zeiss microscopes Axioplan 2 and ApoTome System at one week after seeding.

human NSCs [6] = assay: Imaging and cell proliferation (MTS) assay on assembled scaffolds, human NSCs; type: cell-based
Protocol: as §2

murine NSCs [7] = assay: Imaging and cell proliferation (MTS) assay on assembled scaffolds, murine NSCs; type: cell-based
Protocol: as §2

mouse NSC = assay: NSC differentiation on exposure to soluble heptapeptides (immunofluorescence); type: cell-based; settings: 12 DIV; peptide 0.1 mg/ml in media; Cultrex and Laminin coated wells; vs untreated NSCs, p<0.05
Protocol: In vitro tests were performed as previously described (8), in order to assess whether the heptapeptides obtained of the present invention influence NSCs differentiation.
Murine cells (at a concentration of 2x10^4 cells/cm^2) were seeded in each well (96 multi-well plate) previously coated with Cultrex-BME® substrate (R&D systems) (1:100 dilution in basal medium, overnight incubation) or with Laminin (Roche) (1:5 dilution in PBS 1x, pH 7.4, overnight incubation).
Initially, cells were cultured with basal medium supplemented with βFGF (10 ng/ml), added to enhance neuronal progeny differentiation. At 3 days in vitro (DIV), βFGF medium was replaced with Leukemia Inhibitory Factor (LIF, Chemicon) (20 ng/ml) and Brain Derived Neurotrophic Factor (BDNF, Peprotech) (20 ng/ml). Fresh medium was added every three days. The chosen peptides were dissolved in all cell culture media (but not in the coatings) at a concentration of 0.1 mg/ml.
Immunofluorescence tests were performed for assaying the phenotypes of the differentiated murine NSC progenies. The following antibodies were used: rabbit polyclonal against GFAP (1:500, DakoCytomation) for astrocytes and mouse monoclonal against βIII-Tubulin (1:500, Covance) for neurons. Secondary Abs were Goat anti Mouse Alexa 488 (1:1000, Molecular Probes), Goat anti Mouse Cy3 (1:1000, Jackson Immunoresearch), Cell nuclei were counterstained with DAPI (Molecular Probes). Quantitative analyses were performed by counting 100-300 cells for each of 9 randomly chosen fields over a total of 3 independent experiments.
Values, reported as means ± standard error of the mean (Figure 1A).

CC(=O)N[C@@H](Cc1ccccc1)C(=O)N[C@@H](C)C(=O)N[C@@H](CCC(N)=O)C(=O)N[C@@H](CCCNC(=N)N)C(=O)N[C@H](C(=O)N1CCC[C@H]1C(=O)N1CCC[C@H]1C(=O)NCC(=O)NCC(=O)NCC(=O)N[C@@H](CC(C)C)C(=O)N[C@@H](CC(=O)O)C(=O)N[C@@H](CC(C)C)C(=O)N[C@@H](CCCCN)C(=O)N[C@@H](CC(C)C)C(=O)N[C@@H](CC(=O)O)C(=O)N[C@@H](CC(C)C)C(=O)N[C@@H](CCCCN)C(=O)N[C@@H](CC(C)C)C(=O)N[C@@H](CC(=O)O)C(=O)N[C@@H](CC(C)C)C(=O)N[C@@H](CCCCN)C(N)=O)C(C)C [Ac-FAQ, Ac-FAQRVPP-GGG-LDLKLDLKLDLK-CONH2] (Ac-FAQRVPPGGGLDLKLDLKLDLK-NH2)
Average cumulative cyst area ([1]; hematoxylin/eosin longitudinal sections, not significant vs controls): 28.30 ± 6.70 mm^2
cavities size within the cyst, excluding strands of trabeculae ([1]; not significant vs control): 16.77 ± 4.50 mm^2
average immunopositivity for GAP-43 ([1]; p<0.05 vs saline-injected controls): 15.46 ± 1.94 % of the whole cyst area
number of neurons (human NSCs [2]): significantly higher
number of oligodendrocytes (human NSCs [2]): significantly higher
BBB score ([3]; 1% aqueous solution, 3 µl into lesion site right after injury, week 6,7 and 8 after injury, mean ± SEM): 11.95 ± 0.30
hindlimb motor recovery in comparison to controls ([3]; BBB scale, from week 6 after injury, p<0.05): significant improvement; also recorded: significantly improved locomotor recovery
G' pre-assembling ([4]; average storage modulus of SAPeptide solution, 1% w/v, 1-100 Hz, before PBS): 5.11 Pa
G' post-assembling ([4]; average storage modulus of jellified scaffold, 1% w/v, 1-100 Hz, after PBS): 551.9 Pa
Onset point (% strain) ([4]; strain percentage at rupture, strain sweep at 1 Hz, 25 C): 22.75%
number of neurons (murine NSCs [5]): significantly higher
number of oligodendrocytes (murine NSCs [5]): significantly higher
cell morphology, adhesion and spreading (human NSCs [6]; 7 DIV on assembled hydrogels): spread and branched cells
cell viability (MTS, cell population) (human NSCs [6]; 7 DIV, scaffolds 10 mg/ml, vs control, P<0.03, n=5): cell population was bigger
cell morphology, adhesion and spreading (murine NSCs [7]; 7 DIV on assembled hydrogels): spread and branched cells
cell viability (MTS, cell population) (murine NSCs [7]; 7 DIV, scaffolds 10 mg/ml, vs control, P<0.005, n=5): cell population was bigger

CC(C)C[C@H](NC(=O)[C@@H](N)CCCCN)C(=O)N1CCC[C@H]1C(=O)NCC(=O)N[C@@H](Cc1c[nH]c2ccccc12)C(=O)N[C@@H](CO)C(=O)NCC(N)=O [#KLP, NH2-KLPGWSG-CONH2] (H-KLPGWSG-NH2)
percentage of differentiated neurons (Beta III Tubulin staining) (mouse NSC): significant increase; also recorded: Highest increase of the neuronal phenotype

CC[C@H](C)[C@H](NC(=O)[C@H](C)NC(=O)[C@@H](N)Cc1c[nH]cn1)C(=O)N[C@@H](Cc1ccc(O)cc1)C(=O)N1CCC[C@H]1C(=O)N[C@@H](CCCNC(=N)N)C(=O)N[C@@H](Cc1c[nH]cn1)C(N)=O [#HAI, NH2-HAIYPRH-CONH2]
percentage of differentiated neurons (Beta III Tubulin staining) (mouse NSC): significant increase

CC(C)C[C@H](NC(=O)[C@@H]1CCCN1C(=O)[C@H](C)NC(=O)[C@H](CCCNC(=N)N)NC(=O)[C@@H](NC(=O)[C@H](CCC(=O)O)NC(=O)CN)[C@@H](C)O)C(N)=O [#GET, NH4-GETRAPL-CONH2] (H-GETRAPL-NH2)
percentage of differentiated neurons (Beta III Tubulin staining) (mouse NSC): significant increase
